± gives the uncertainty stated by the source.
Assay: xn = mol fraction of the nth substance listed

C=CC[n+]1ccn(C)c1.O=S(=O)([N-]S(=O)(=O)C(F)(F)F)C(F)(F)F + CCCO
298.15 K, 100 kPa
Details | viscosity [mPa·s]
x1 = 0.2 | 5.11 ± 0.17
x1 = 0.5 | 10.41 ± 0.34
x1 = 0.7 | 16.23 ± 0.53
x1 = 0.8 | 20.34 ± 0.67
x1 = 0.9 | 25.56 ± 0.84

CC[n+]1ccccc1.[Cl-] + CC[n+]1ccccc1.[Br-]
101 kPa
Details | viscosity [mPa·s]
418.1 K, x1 = 0.196 | 9.57 ± 0.41
418.1 K, x1 = 0.613 | 9.2 ± 0.41
423.1 K, x1 = 0.196 | 8.73 ± 0.37
423.1 K, x1 = 0.303 | 8.64 ± 0.37
423.1 K, x1 = 0.613 | 8.37 ± 0.36
423.1 K, x1 = 0.885 | 8.17 ± 0.36
428.1 K, x1 = 0.303 | 7.88 ± 0.33
428.1 K, x1 = 0.688 | 7.61 ± 0.31
433.1 K, x1 = 0.503 | 7.14 ± 0.27
438.1 K, x1 = 0.613 | 6.53 ± 0.24

CCCCCCCC[N+](CCCCCCCC)(CCCCCCCC)CCCCCCCC.[Br-] + CCCCCC(=O)O
Details | electrical conductivity [S/m]
298.1 K, 100 kPa, x1 = 0.333 | 4.5e-06 ± 5e-07

CC[n+]1ccn(C)c1.O=S(=O)([N-]S(=O)(=O)C(F)(F)F)C(F)(F)F + O
Details | electrical conductivity [S/m] | viscosity [mPa·s]
297.55 K, 101 kPa, x1 = 0.889 | – | 26 ± 0.7
297.85 K, 101 kPa, x2 = 0.205 | 1.22 ± 0.03 | –
298 K, 101 kPa, x2 = 0.02 | – | 32.3 ± 3.3
298 K, 101 kPa, x2 = 0.0629 | – | 30.8 ± 3.1
298 K, 101 kPa, x2 = 0.199 | – | 25.4 ± 2.6
298 K, 101 kPa, x2 = 0.227 | – | 25.2 ± 2.6
298.15 K, 101 kPa, x2 = 0.205 | 1.3 ± 0.03 | –
299.15 K, 101 kPa, x2 = 0.205 | 1.32 ± 0.03 | –
300.35 K, 101 kPa, x2 = 0.205 | 1.38 ± 0.03 | –
302.15 K, 101 kPa, x2 = 0.205 | 1.45 ± 0.03 | –
302.85 K, 101 kPa, x2 = 0.205 | 1.51 ± 0.03 | –
303.15 K, 100 kPa, x2 = 0.298 | – | 16.23 ± 0.14
303.95 K, 101 kPa, x2 = 0.205 | 1.61 ± 0.03 | –
304.95 K, 101 kPa, x2 = 0.205 | 1.66 ± 0.03 | –
313.15 K, 100 kPa, x2 = 0.298 | – | 12.29 ± 0.11
333.15 K, 100 kPa, x2 = 0.298 | – | 7.749 ± 0.067

CCCCCCCCCC(=O)[O-].CCCCCCCCCCCCCC[P+](CCCCCC)(CCCCCC)CCCCCC + O
Details | viscosity [mPa·s]
358.15 K, 100 kPa, x2 = 0.872 | 9.345 ± 0.073

CC[n+]1ccn(C)c1.O=S(=O)([N-]S(=O)(=O)C(F)(F)F)C(F)(F)F + CCOS(=O)(=O)[O-].CC[n+]1ccn(C)c1
298.15 K, 100 kPa
Details | viscosity [mPa·s]
x1 = 0.1042 | 95.6 ± 1.7
x1 = 0.2975 | 84.1 ± 1.4

Cc1cnc[nH]1 + CC[n+]1ccn(C)c1.[Cl-]
101.33 kPa, x2 = 0.667
Details | viscosity [mPa·s]
303.15 K | 326 ± 12
313.15 K | 151.3 ± 4.8
323.15 K | 84.8 ± 2.2
333.15 K | 51.8 ± 1.2
343.15 K | 32.73 ± 0.76
353.15 K | 22.56 ± 0.52

CC[n+]1ccn(C)c1.F[B-](F)(F)F + CC1COC(=O)O1
298 K, 101 kPa
Details | electrical conductivity [S/m]
x2 = 0.16 | 1.5 ± 0.12
x2 = 0.83 | 1.68 ± 0.13
x2 = 0.89 | 1.46 ± 0.12

CCCC[n+]1ccn(C)c1.[I-] + [I-].[Li+] + O
viscosity [mPa·s], 100 kPa
Details | x1 = 0.05, x2 = 0.05 | x1 = 0.4, x2 = 0.05
198.25 K | – | 1.3e+08
198.65 K | 15000 | –
203.85 K | 6900 | 1.32e+07 ± 3.2e+06
208.75 K | 3700 | –
209.15 K | – | 2900000
213.95 K | 1900 | 490000
218.85 K | 1600 | 180000
224.05 K | 1200 | 68000
228.55 K | – | 29000
228.95 K | 810 | –
233.05 K | 470 | –
234.15 K | – | 15000
236.45 K | 320 | –
238.25 K | – | 8000
241.25 K | 220 | –
243.85 K | – | 3700
246.15 K | 150 | –
248.75 K | 11 | –
249.15 K | – | 2500
253.95 K | 9.7 | 1600
259.25 K | – | 1000
259.65 K | 7.7 | –
263.4 K | 6.1 | –
264.1 K | – | 600
268.6 K | – | 440
268.9 K | 5.2 | –
273 K | – | 280
274 K | 4.5 | –
278.6 K | 4.5 | –
279.1 K | – | 180
283.55 K | 3.9 | 120
288.45 K | 3.6 | –
289.15 K | – | 82
293.65 K | 3.1 | 65
298.55 K | 2.6 | 41

CO/N=C(\C(=O)N[C@@H]1C(=O)N2C(C(=O)[O-])=C(CSc3nc(=O)c(=O)[n-]n3C)CS[C@H]12)c1csc(N)n1.[Na+].[Na+] + CCCCCCCC[n+]1ccc(C)cc1.[Br-] + O
viscosity [mPa·s], 100 kPa
Details | x1 = 0.0003495, x2 = 0 | x1 = 0.0008732, x2 = 0 | x1 = 0.001391, x2 = 0 | x1 = 0.002502, x2 = 0 | x1 = 0.00312, x2 = 0 | x1 = 0.003888, x2 = 0 | x1 = 0.004767, x2 = 0 | x1 = 0.005484, x2 = 0
288.15 K | 1.196 ± 0.049 | 1.273 ± 0.052 | 1.365 ± 0.056 | 1.604 ± 0.066 | 1.745 ± 0.072 | 1.964 ± 0.081 | 2.205 ± 0.091 | 2.45 ± 0.1
293.15 K | 1.053 ± 0.043 | 1.12 ± 0.046 | 1.2 ± 0.049 | 1.399 ± 0.057 | 1.527 ± 0.063 | 1.701 ± 0.07 | 1.918 ± 0.079 | 2.122 ± 0.087
298.15 K | 0.935 ± 0.038 | 0.994 ± 0.041 | 1.062 ± 0.044 | 1.231 ± 0.051 | 1.348 ± 0.055 | 1.495 ± 0.061 | 1.674 ± 0.069 | 1.858 ± 0.076
303.15 K | 0.829 ± 0.034 | 0.885 ± 0.036 | 0.945 ± 0.039 | 1.1 ± 0.045 | 1.195 ± 0.049 | 1.323 ± 0.054 | 1.48 ± 0.061 | 1.638 ± 0.067
308.15 K | 0.744 ± 0.031 | 0.794 ± 0.033 | 0.849 ± 0.035 | 0.982 ± 0.04 | 1.07 ± 0.044 | 1.184 ± 0.049 | 1.322 ± 0.054 | 1.455 ± 0.06

CC[n+]1ccn(C)c1.O=S(=O)([N-]S(=O)(=O)C(F)(F)F)C(F)(F)F + CO
100 kPa
Details | viscosity [mPa·s]
298.15 K, x2 = 0.5988 | 6.44 ± 0.31
308.15 K, x2 = 0.4005 | 9.17 ± 0.32
308.15 K, x2 = 0.8978 | 1.32 ± 0.3
313.15 K, x2 = 0.4005 | 8.11 ± 0.31
313.15 K, x2 = 0.5088 | 6.09 ± 0.31
313.15 K, x2 = 0.6909 | 3.44 ± 0.3
318.15 K, x2 = 0.1965 | 11.67 ± 0.42
323.15 K, x2 = 0.7961 | 1.82 ± 0.3

OCCCCCCO + C[N+](C)(C)Cc1ccccc1.[Cl-]
101.13 kPa, x2 = 0.5
Details | electrical conductivity [S/m] | viscosity [mPa·s]
298 K | 0.084 ± 0.017 | –
308 K | – | 73 ± 14

ClCCl + CCCC[n+]1ccn(C)c1.F[P-](F)(F)(F)(F)F
298.15 K, 101 kPa
Details | electrical conductivity [S/m] | viscosity [mPa·s]
x1 = 0.2451 | 0.394 ± 0.047 | 89 ± 21
x1 = 0.4351 | 0.731 ± 0.088 | 34.7 ± 3.5

CCCCCCCC[N+](CCCCCCCC)(CCCCCCCC)CCCCCCCC.[Br-] + CCCCCCCC(=O)O
Details | electrical conductivity [S/m]
298.1 K, 100 kPa, x1 = 0.333 | 4.5e-06 ± 5e-07

CC[n+]1ccn(C)c1.O=S(=O)([N-]S(=O)(=O)C(F)(F)F)C(F)(F)F + O=C1CCCO1
100 kPa, frequency 0.005 MHz
Details | electrical conductivity [S/m]
293.15 K, x2 = 0 | 0.774 ± 0.023
293.15 K, x2 = 0.3005 | 1.17 ± 0.035
293.15 K, x2 = 0.5101 | 1.47 ± 0.044
293.15 K, x2 = 0.9005 | 1.58 ± 0.048
293.15 K, x2 = 0.95 | 1.13 ± 0.037
298.15 K, x2 = 0.2073 | 1.19 ± 0.036
303.15 K, x2 = 0 | 1.06 ± 0.032
303.15 K, x2 = 0.2073 | 1.34 ± 0.04
303.15 K, x2 = 0.3005 | 1.47 ± 0.044
303.15 K, x2 = 0.5101 | 1.79 ± 0.054
303.15 K, x2 = 0.7 | 2.07 ± 0.062
303.15 K, x2 = 0.7994 | 2.09 ± 0.063
303.15 K, x2 = 0.8498 | 2.06 ± 0.062
303.15 K, x2 = 0.95 | 1.32 ± 0.043
308.15 K, x2 = 0 | 1.2 ± 0.036
308.15 K, x2 = 0.7994 | 2.25 ± 0.068
313.15 K, x2 = 0 | 1.35 ± 0.041
313.15 K, x2 = 0.3005 | 1.77 ± 0.053
318.15 K, x2 = 0.2073 | 1.82 ± 0.055
318.15 K, x2 = 0.5101 | 2.31 ± 0.069
318.15 K, x2 = 0.95 | 1.59 ± 0.052
323.15 K, x2 = 0.2073 | 2.04 ± 0.061
323.15 K, x2 = 0.6 | 2.69 ± 0.081

CO + CC[n+]1ccn(C)c1.N#C[S-]
100 kPa, x2 = 0
Details | viscosity [mPa·s]
298.15 K | 0.54
318.15 K | 0.43

CO + CC[n+]1ccn(C)c1.O=S(=O)([N-]S(=O)(=O)C(F)(F)F)C(F)(F)F
100 kPa, x1 = 1
Details | viscosity [mPa·s]
298.15 K | 0.55 ± 0.2
308.15 K | 0.48 ± 0.2
318.15 K | 0.43 ± 0.2

C[N+](C)(C)Cc1ccccc1.[Cl-] + CCC(O)CO
101.13 kPa, x1 = 0.5
Details | electrical conductivity [S/m] | viscosity [mPa·s]
308 K | – | 64 ± 12
323 K | 0.53 ± 0.11 | –

Reference: the CheMixHub ionic liquid set
